According to ChEMBL document CHEMBL1201862, “PubChem BioAssay data set” (2004):
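Test compounds were applied to cells in 96-well plates for 48 hours at 5 doses. Here, GI50 denotes the concentration required for 50% inhibition of growth.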 Activity calls are given as the source filed them. No stated cut-off is given here; in the data, active = GI50 up to about 1.1 µM and inactive = higher.

Key:
Assay in all cases: growth of human tumour cells (NCI), 48 h
SF-268 = system: SF-268
UACC-62 = system: UACC-62
MOLT-4 = system: MOLT-4
HT-29 = system: HT-29
UACC-257 = system: UACC-257
CCRF-CEM = system: CCRF-CEM
MDA-N = system: MDA-N
U-251 = system: U-251
NCI-H460 = system: NCI-H460
TK-10 = system: TK-10
LOX IMVI = system: LOX IMVI
HCC 2998 = system: HCC 2998
HCT-15 = system: HCT-15
K562 = system: K562
SK-MEL-28 = system: SK-MEL-28
SF-295 = system: SF-295
OVCAR-4 = system: OVCAR-4
T47D = system: T47D

Row | SMILES | GI50 (SF-268) | GI50 (UACC-62) | GI50 (MOLT-4) | GI50 (HT-29) | GI50 (UACC-257) | GI50 (CCRF-CEM) | GI50 (MDA-N) | GI50 (U-251) | GI50 (NCI-H460) | GI50 (TK-10) | GI50 (LOX IMVI) | GI50 (HCC 2998) | GI50 (HCT-15) | GI50 (K562) | GI50 (SK-MEL-28) | GI50 (SF-295) | GI50 (OVCAR-4) | GI50 (T47D)
1 | O=C([O-])Cc1ccccc1.[Na+] [SODIUM PHENYLACETATE] | 1340 µM (inactive) | 1370 µM (inactive) | 289 µM (inactive) | 931 µM (inactive) | > 2000 µM (inactive) | 671 µM (inactive) | 10.6 µM (inactive) | 729 µM (inactive) | 342 µM (inactive) | 1130 µM (inactive) | 1160 µM (inactive) | 1210 µM (inactive) | 703 µM | 284 µM (inactive) | 800 µM (inactive) | 843 µM (inactive) | 255 µM (inactive) | 774 µM (inactive)
2 | [N-]=[N+]=Nc1c([N+](=O)[O-])c(Cl)nc2ccccc12 | 3.47 µM (inactive) | 4.37 µM (inactive) | 0.587 µM (active) | 2.18 µM (inactive) | 1.69 µM (inactive) | 0.376 µM (active) | 2.38 µM (inactive) | 5.96 µM (inactive) | 10.8 µM (inactive) | 2.25 µM (inactive) | 1.59 µM (inactive) | 1.98 µM (inactive) | 1.83 µM | 0.463 µM (active) | 2.48 µM (inactive) | 19.4 µM (inactive) | 1.9 µM (inactive) | 2.07 µM (inactive)
3 | CCCCCCCCCCCCCCCCCCNc1nc(=O)n(C2CC(O)C(COP(=O)(O)OCC3OC(n4ccc(N)nc4=O)C(O)C3O)O2)cc1F (stereo not drawn) | 32.1 µM (inactive) | 80.4 µM (inactive) | 25.9 µM (inactive) | 13.1 µM (inactive) | > 100 µM (inactive) | > 100 µM (inactive) | > 100 µM (inactive) | 23.7 µM (inactive) | 4.5 µM (inactive) | > 100 µM (inactive) | 10.2 µM (inactive) | 11.8 µM (inactive) | 12.7 µM | > 100 µM (inactive) | > 100 µM (inactive) | > 100 µM (inactive) | 93.5 µM (inactive) | 28.7 µM (inactive)
4 | Nc1c(C(=O)c2ccccc2)[nH]c(NCc2ccccc2)c1C(=S)Nc1ccccc1 | > 100 µM (inactive) | > 100 µM (inactive) | > 100 µM (inactive) | > 100 µM (inactive) | > 100 µM (inactive) | > 100 µM (inactive) | > 100 µM (inactive) | > 100 µM (inactive) | > 100 µM (inactive) | > 100 µM (inactive) | > 100 µM (inactive) | > 100 µM (inactive) | > 100 µM | > 100 µM (inactive) | > 100 µM (inactive) | > 100 µM (inactive) | > 100 µM (inactive) | > 100 µM (inactive)
5 | Cc1ccc(S(=O)(=O)N/N=C/C2(c3ccccc3)c3ccccc3-c3ccccc32)cc1 | 14 µM (inactive) | 11.2 µM (inactive) | 7.18 µM (inactive) | 12.5 µM (inactive) | 15.6 µM (inactive) | 4.16 µM (inactive) | 4.28 µM (inactive) | 11.8 µM (inactive) | 5.06 µM (inactive) | 20.9 µM (inactive) | 12.7 µM (inactive) | 13.3 µM (inactive) | 9.27 µM | 4.56 µM (inactive) | 14.8 µM (inactive) | 3.21 µM (inactive) | 10.3 µM (inactive) | 2.09 µM (inactive)
6 | CSc1nc(Cl)c2c(n1)Sc1nc3ccccc3n1C2O (stereo not drawn) | 5.25 µM (inactive) | 3.42 µM (inactive) | 3.48 µM (inactive) | 3.52 µM (inactive) | 13.5 µM (inactive) | 1.36 µM (inactive) | 2.86 µM (inactive) | 3.67 µM (inactive) | 13.4 µM (inactive) | 7.13 µM (inactive) | 0.861 µM (active) | 3.91 µM (inactive) | 3.4 µM | 3.71 µM (inactive) | 6.79 µM (inactive) | 21.3 µM (inactive) | 17.2 µM (inactive) | 15.3 µM (inactive)
